According to ChEMBL document CHEMBL1201862, “PubChem BioAssay data set” (2004):
Activity calls are given as the source filed them.

Key:
[1] = target: T1, Dual specificity protein phosphatase 6 (Rattus norvegicus, UniProt Q64346); type: functional
[2] = target: T1, Dual specificity protein phosphatase 6
[3] = target: T2, Tyrosine-protein phosphatase non-receptor type 7 (Homo sapiens, UniProt P35236); type: functional
T2 sequence (P35236 whole entry): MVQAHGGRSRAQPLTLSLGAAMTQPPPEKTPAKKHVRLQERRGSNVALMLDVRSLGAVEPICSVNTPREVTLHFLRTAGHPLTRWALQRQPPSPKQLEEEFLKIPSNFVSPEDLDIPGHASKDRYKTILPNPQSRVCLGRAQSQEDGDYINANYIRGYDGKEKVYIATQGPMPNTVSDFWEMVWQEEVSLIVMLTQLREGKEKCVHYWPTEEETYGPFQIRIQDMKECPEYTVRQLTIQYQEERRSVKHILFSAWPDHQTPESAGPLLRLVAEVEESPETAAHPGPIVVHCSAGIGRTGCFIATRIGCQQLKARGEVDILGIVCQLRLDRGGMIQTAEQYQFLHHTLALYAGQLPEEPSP

[4] = target: Glyceraldehyde-3-phosphate dehydrogenase (Homo sapiens, UniProt P04406)
[5] = inhibitors of intracellular T. cruzi replication, confirmation, NIH3T3 host cells, beta-gal luminescence (AID 2044); type: functional, cell-based;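 further: intracellular parasites grown in NIH/3T3 mouse fibroblasts as host cells; luminescent beta-galactosidase reporter signal from transgenic T. cruzi replicating inside host cells; inhibitors lower the luminescence signal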
[6] = cytotoxicity in MIN6 insulinoma cells, dose response, cytotoxicity control, cell-based, mouse insulinoma (AID 2122); type: functional;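 further: confirmatory high-throughput counterscreen run to flag cytotoxic compounds; mouse MIN-6 beta cells carrying an insulin promoter eGFP reporter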
[7] = cytotoxicity in HMLE control line with eGFP shRNA, dose response, counter-screen for HMLE_sh_ECad selective toxicity project, cell-based, HMLE_sh_eGFP, luminescence (AID 463074); type: functional, Homo sapiens;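 further: HMLE human mammary epithelial cells expressing control shRNA against eGFP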
[8] = cytotoxicity toward NIH3T3 fibroblasts, dose response, counter-screen, cell-based, ATP luminescence, mouse fibroblasts (AID 2010); type: functional;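 further: cells exposed to compound for about 90 hours before reading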
[9] = Luminescence Cell-Based Dose Retest to Confirm Inhibitors of Cancer Stem Cells. [Related pubchem assays (depositor defined):AID2717, AID2721]; type: functional; settings: Homo sapiens
[10] = insulin promoter down-regulators in MIN6 cells, imaging, high-content screening, mouse beta cells (AID 1628); type: functional
[11] = target: Dual specificity tyrosine-phosphorylation-regulated kinase 1A (Rattus norvegicus, UniProt Q63470); type: biochemical, Homo sapiens
Escherichia coli = assay: microbe, parasite or virus in culture
ORF 73 = ORF 73 (Human herpesvirus 8, UniProt O40947); assay: inhibitors of C-LANA binding to LBS DNA, dose response, biochemical, fluorescence polarization, cherry-picked samples (AID 504725); design: species or system Human gammaherpesvirus 8;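 further: fluorescence polarization of a labeled DNA duplex reporting LANA DNA binding; potency is for inhibitors that block LANA binding to the DNA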
Keap1/Nrf2 = Keap1/Nrf2 (Homo sapiens, UniProt Q14145); assay: Keap1-Nrf2 protein-protein interaction inhibitors, dose response, biochemical, fluorescence polarization, cherry-picked samples (AID 588683)
HEK293 [12] = assay: cells; settings: Homo sapiens
HEK293 [13] = assay: cells; settings: Homo sapiens; remark: listed apart in the source
[14] = HepG2 cell cytotoxicity, dose response, cytotoxicity control for non-replicating M. tuberculosis project (AID 489018); type: functional; settings: Mycobacterium tuberculosis
[15] = inhibitors of Trypanosoma cruzi host-cell infection, confirmation, beta-gal luminescence, NIH3T3 host cells (AID 2630); type: functional, cell-based; settings: Mus musculus
[16] = target: T3, Microphthalmia-associated transcription factor (Homo sapiens, UniProt O75030); assay: TRPM1 promoter luciferase signal decrease, dose response, MITF inhibitor project, cell-based, SK-MEL-5, cherry-picked, set 3 (AID 493073); type: functional
T3 sequence (O75030 whole entry): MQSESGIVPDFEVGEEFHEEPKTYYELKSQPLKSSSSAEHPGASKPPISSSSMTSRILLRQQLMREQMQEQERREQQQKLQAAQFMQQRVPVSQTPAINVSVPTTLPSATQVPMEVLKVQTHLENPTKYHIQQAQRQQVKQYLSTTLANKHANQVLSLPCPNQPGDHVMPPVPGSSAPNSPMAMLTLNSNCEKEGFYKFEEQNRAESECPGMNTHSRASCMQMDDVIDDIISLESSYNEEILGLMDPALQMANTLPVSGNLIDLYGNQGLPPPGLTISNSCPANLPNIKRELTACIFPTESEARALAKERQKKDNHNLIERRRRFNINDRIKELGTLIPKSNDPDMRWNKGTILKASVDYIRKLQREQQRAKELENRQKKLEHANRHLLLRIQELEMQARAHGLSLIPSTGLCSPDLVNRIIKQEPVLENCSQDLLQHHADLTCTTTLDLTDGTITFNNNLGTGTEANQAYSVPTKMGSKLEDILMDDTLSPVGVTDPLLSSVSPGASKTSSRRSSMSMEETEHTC

[17] = Vero E6 cell cytotoxicity, dose response, cytotoxicity control for non-replicating M. tuberculosis project, secondary assay (AID 492998); type: functional, VeroE6; settings: Vero C1008
Trypanosoma cruzi = assay: growth inhibition of intracellular Trypanosoma cruzi, dose response, cell-based, plate reader, dry powder, set 3 (AID 493197); type: functional
[18] = THP-1 cell cytotoxicity, dose response, cytotoxicity control for non-replicating M. tuberculosis project (AID 489025); type: functional
cells [19] = assay: cells
A-375 = assay: MITF: Counter assay: A375 proliferation Measured in Cell-Based System Using Plate Reader - 2084-03_Inhibitor_Dose_DryPowder_Activity. [Related pubchem assays (depositor defined):AID488944]; type: functional; settings: Homo sapiens
[20] = cytotoxicity in NIH/3T3 mouse fibroblasts, dose response, cytotoxicity control, cell-based, mouse embryonic fibroblasts, dry powder, set 2 (AID 493247); type: functional; settings: Fibroblast
cells [21] = type: functional
[22] = HIV-1 Env-mediated cell fusion inhibitors, dose response, CCR5-tropic Env (AID 2279); type: functional
[23] = target: T4, Apoptotic protease-activating factor 1 (Homo sapiens, UniProt O14727); assay: activation of Apaf-1 mediated apoptosis – fluorescent, uHTS hits, dose response (AID 588554); type: functional
T4 sequence (O14727 whole entry): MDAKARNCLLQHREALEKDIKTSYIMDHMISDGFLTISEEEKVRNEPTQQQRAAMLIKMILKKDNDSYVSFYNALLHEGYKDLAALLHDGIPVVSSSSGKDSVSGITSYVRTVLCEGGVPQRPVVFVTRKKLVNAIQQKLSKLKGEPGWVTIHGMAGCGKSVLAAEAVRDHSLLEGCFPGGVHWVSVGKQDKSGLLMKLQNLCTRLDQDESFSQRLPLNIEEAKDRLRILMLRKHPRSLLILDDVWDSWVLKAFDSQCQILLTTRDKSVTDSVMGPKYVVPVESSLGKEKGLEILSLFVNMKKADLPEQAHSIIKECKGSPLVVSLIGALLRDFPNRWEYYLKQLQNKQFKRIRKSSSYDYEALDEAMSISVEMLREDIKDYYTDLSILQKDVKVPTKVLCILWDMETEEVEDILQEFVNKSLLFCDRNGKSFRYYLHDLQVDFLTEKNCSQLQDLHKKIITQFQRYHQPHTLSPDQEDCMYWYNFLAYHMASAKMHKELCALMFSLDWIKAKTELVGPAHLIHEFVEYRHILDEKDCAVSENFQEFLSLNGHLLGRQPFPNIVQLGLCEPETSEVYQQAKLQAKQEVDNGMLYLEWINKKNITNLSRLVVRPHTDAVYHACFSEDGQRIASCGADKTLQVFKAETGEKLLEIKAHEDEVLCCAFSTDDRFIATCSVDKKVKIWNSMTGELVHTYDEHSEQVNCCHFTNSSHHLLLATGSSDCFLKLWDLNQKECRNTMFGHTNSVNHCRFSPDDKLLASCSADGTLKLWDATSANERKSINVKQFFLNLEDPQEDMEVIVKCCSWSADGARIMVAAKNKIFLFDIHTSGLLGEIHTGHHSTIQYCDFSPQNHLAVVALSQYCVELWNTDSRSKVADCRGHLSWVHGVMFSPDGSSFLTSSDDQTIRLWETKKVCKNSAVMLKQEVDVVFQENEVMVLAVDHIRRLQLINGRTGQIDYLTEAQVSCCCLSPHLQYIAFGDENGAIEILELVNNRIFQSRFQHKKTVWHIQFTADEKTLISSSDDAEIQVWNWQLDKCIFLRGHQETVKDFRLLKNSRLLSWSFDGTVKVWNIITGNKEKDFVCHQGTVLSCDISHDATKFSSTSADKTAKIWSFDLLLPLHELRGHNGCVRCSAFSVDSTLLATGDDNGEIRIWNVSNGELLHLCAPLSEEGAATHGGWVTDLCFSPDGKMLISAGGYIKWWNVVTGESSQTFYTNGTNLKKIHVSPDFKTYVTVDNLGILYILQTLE

[24] = target: T5, Calpain-2 catalytic subunit (Sus scrofa, UniProt P43367); assay: pig calpain II inhibitor potency, dose response, biochemical, fluorogenic peptide substrate (AID 1420); type: functional
T5 sequence (P43367 whole entry): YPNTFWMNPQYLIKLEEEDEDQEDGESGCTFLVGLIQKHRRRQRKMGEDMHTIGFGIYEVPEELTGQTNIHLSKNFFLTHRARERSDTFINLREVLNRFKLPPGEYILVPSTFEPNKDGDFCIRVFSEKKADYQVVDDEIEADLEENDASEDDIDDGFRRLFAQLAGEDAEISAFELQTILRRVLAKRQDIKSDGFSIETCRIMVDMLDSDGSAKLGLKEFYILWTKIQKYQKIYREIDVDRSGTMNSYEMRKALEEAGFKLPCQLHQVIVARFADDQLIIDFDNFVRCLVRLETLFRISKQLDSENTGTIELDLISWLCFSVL

[25] = target: Luciferin 4-monooxygenase (Photuris pensylvanica, UniProt Q27757); assay: firefly luciferase enzyme inhibitors, dose response, counter-screen for HSF-1 reporter inhibitor project, biochemical, Cell Titer Glo, luminescence, cherry-picks (AID 588847)
[26] = NIH-3T3 fibroblast cytotoxicity, dose response, cytotoxicity control, cell-based, fluorescence, Alamar Blue, secondary assay (AID 2327); type: functional;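 further: NIH-3T3 mouse fibroblasts cultured with fluconazole at 8 µg/mL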
[27] = Shn3 3'UTR reporter inhibitors, dose response, cell-based, Clone20 osteoblasts, firefly luciferase, cherry-picked (AID 624132); type: functional;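 further: firefly luciferase luminescence from reporter carrying the Shn3 3'UTR in osteoblasts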
[28] = HepG2 cell cytotoxicity, dose response, cytotoxicity control for Shn3 inhibitor project, CellTiter-Glo, cherry-picked (AID 624134); type: functional, cell-based
[29] = C. albicans growth with fluconazole, confirmation, fluorescence, retest (AID 2467); type: functional, cell-based
[30] = control 3'UTR Renilla luciferase suppression, dose response, counter-screen for Shn3 inhibitor project, cell-based, Clone20-Shn3RL, cherry-picked (AID 624133); type: functional
[31] = target: G-protein coupled receptor 55 (Homo sapiens, UniProt Q9Y2T6); assay: GPR55 antagonists blocking LPI-driven arrestin recruitment, primary screen, imaging, U2OS, beta-arrestin-GFP, LPI agonist (AID 2013); type: functional;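 further: antagonist potency measured as reduced agonist-driven arrestin aggregation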
[32] = target: T6, Ubiquitin-conjugating enzyme E2 N (Homo sapiens, UniProt P61088); type: functional;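 further: Dose-response confirmation in a TR-FRET assay detecting UBC13-driven polyubiquitin chain formation, inhibition measured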
T6 sequence (P61088 whole entry): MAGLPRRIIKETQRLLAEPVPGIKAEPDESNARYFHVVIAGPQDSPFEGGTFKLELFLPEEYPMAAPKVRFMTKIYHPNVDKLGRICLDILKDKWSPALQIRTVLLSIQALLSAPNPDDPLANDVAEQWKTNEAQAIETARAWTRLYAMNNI

[33] = target: Serine/threonine-protein phosphatase (Candida dubliniensis (strain CD36 / CBS 7987 / NCPF 3949 / NRRLY-17841) (Yeast), UniProt B9W6M3); assay: calcineurin pathway inhibitors in yeast reporter, dose response, S. cerevisiae, CDRE-lacZ, luminescence, secondary (AID 2388); type: functional, cell-based;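 further: yeast reporter cells carrying a calcineurin-responsive lacZ construct stimulated with calcium chloride; luminescent beta-galactosidase reporter signal in whole cells rather than isolated phosphatase activity; potency for inhibition where a drop in reporter signal means calcineurin blockade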
[34] = target: ATP-dependent molecular chaperone HSP82 (Candida albicans (strain WO-1) (Yeast), UniProt C4YTQ8); assay: loss of DOC-induced GRE-beta-galactosidase reporter signal, dose response, Hsp90 inhibitor project, S. cerevisiae, luminescence (AID 2400); type: functional, cell-based;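 further: beta-galactosidase luminescence from glucocorticoid response element reporter as proxy for Hsp90 function; inhibitor potency where signal loss means Hsp90 inhibition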
Sequence of ATP-dependent molecular chaperone HSP82 (C4YTQ8 whole entry): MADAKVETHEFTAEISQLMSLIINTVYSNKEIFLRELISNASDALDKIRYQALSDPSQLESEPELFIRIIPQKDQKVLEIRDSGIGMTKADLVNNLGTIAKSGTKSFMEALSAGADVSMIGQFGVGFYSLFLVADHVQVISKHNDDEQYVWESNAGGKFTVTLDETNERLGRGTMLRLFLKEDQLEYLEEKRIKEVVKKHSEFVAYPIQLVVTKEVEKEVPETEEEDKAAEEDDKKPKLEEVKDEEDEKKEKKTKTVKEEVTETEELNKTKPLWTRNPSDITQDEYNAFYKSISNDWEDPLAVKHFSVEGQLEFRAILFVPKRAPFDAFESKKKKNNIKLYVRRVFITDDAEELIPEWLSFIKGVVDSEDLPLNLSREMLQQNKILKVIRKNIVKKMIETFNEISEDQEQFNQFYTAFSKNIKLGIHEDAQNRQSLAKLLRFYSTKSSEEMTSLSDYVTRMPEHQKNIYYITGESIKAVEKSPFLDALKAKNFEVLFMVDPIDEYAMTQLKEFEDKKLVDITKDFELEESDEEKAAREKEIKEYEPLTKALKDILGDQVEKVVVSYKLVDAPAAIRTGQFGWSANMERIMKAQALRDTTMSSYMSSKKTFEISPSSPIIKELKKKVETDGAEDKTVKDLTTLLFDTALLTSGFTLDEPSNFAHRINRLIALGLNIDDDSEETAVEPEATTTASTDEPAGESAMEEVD

T1 sequence (Q64346 whole entry): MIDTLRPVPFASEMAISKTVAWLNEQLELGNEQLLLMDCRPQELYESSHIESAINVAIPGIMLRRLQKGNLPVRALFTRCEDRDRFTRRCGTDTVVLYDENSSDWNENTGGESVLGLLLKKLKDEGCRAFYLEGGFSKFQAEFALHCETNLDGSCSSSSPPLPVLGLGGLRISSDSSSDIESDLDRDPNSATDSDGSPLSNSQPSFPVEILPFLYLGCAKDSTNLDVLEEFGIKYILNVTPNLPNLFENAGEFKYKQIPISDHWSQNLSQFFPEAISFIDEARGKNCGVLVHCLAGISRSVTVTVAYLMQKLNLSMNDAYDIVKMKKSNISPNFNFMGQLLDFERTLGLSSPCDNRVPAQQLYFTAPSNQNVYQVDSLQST
Sequence of Serine/threonine-protein phosphatase (B9W6M3 whole entry): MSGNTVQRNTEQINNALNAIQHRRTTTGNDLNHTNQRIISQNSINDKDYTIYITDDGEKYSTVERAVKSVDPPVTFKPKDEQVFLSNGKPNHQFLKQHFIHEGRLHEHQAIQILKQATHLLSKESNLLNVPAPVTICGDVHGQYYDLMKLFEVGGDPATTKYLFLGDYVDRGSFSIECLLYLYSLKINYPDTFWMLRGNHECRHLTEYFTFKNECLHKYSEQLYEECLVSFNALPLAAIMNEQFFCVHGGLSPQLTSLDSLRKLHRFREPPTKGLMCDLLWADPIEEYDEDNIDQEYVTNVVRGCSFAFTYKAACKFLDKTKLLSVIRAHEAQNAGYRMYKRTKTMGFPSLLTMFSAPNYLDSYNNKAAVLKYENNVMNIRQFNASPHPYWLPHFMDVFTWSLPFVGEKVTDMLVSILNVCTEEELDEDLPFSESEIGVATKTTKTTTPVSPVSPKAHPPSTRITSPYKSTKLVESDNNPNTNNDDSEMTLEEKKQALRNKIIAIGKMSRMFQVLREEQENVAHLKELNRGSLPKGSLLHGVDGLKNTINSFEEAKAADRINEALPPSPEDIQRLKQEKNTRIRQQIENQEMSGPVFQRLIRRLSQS
Sequence of G-protein coupled receptor 55 (Q9Y2T6 whole entry): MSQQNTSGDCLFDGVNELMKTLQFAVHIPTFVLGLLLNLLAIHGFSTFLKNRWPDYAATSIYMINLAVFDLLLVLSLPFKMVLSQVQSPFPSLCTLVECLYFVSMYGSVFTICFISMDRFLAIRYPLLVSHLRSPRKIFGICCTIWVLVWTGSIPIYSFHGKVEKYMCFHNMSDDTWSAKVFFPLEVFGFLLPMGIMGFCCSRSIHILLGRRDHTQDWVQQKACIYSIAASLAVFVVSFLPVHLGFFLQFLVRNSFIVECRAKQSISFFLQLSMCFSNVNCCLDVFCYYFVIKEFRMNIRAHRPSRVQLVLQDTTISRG
Sequence of ORF 73 (O40947 whole entry): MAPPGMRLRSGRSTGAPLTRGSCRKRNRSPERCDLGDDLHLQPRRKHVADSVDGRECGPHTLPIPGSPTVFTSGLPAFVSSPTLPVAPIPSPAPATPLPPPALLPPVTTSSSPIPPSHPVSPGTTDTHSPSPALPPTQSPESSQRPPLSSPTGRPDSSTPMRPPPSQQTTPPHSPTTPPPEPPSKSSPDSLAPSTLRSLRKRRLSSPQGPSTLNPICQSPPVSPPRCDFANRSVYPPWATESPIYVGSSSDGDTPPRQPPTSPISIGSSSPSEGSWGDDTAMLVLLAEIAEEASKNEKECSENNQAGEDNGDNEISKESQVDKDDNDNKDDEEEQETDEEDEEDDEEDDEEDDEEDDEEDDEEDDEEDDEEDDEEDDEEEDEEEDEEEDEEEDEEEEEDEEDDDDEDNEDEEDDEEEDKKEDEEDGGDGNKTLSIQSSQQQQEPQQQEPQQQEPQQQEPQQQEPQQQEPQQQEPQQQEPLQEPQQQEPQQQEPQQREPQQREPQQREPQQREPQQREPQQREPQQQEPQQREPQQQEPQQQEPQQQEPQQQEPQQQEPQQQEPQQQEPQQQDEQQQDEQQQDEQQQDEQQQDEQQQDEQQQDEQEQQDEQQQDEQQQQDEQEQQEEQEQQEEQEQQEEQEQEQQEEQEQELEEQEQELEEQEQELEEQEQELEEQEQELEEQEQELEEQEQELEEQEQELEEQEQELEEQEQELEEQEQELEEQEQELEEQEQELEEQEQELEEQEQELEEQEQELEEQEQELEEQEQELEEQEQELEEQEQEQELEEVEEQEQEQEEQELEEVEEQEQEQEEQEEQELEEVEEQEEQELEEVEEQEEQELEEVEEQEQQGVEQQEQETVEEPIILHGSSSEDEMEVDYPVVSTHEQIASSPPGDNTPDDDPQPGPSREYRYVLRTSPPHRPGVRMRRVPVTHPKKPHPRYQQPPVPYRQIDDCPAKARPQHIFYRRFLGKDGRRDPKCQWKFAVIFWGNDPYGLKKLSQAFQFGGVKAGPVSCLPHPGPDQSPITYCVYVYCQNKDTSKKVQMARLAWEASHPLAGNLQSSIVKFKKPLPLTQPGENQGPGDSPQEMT
Sequence of Keap1/Nrf2 (Q16236 whole entry): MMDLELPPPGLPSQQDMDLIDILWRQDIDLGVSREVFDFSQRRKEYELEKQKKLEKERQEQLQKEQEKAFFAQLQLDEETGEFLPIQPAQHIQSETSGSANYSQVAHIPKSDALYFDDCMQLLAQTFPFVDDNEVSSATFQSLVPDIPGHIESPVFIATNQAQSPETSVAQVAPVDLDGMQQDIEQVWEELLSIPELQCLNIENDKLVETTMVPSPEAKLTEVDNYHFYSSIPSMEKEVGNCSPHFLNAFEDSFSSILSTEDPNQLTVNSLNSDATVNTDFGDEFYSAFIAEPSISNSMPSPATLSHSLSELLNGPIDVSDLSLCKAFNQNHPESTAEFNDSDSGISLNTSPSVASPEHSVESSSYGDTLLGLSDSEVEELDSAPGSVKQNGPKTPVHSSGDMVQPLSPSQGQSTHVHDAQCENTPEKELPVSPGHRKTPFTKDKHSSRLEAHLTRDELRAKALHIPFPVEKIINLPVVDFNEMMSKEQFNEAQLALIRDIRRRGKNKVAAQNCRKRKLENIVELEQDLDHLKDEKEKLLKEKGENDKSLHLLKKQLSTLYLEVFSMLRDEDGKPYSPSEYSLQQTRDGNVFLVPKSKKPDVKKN
Sequence of Keap1/Nrf2 (Q14145 whole entry): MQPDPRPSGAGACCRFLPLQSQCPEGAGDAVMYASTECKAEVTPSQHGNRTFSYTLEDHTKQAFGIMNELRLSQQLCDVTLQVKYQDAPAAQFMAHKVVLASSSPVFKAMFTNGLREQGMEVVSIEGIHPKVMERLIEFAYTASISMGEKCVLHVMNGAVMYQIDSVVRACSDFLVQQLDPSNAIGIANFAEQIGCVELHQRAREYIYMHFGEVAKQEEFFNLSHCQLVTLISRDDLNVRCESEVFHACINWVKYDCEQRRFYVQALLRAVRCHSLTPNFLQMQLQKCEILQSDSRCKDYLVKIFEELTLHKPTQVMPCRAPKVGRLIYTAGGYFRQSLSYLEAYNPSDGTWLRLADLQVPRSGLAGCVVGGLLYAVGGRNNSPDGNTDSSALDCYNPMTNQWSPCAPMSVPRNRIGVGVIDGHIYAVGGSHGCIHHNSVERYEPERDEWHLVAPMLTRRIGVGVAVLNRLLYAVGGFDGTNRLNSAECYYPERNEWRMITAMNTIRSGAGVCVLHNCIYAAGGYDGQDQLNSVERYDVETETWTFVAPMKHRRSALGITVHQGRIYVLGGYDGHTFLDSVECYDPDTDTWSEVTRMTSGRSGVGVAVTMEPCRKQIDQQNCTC
Sequence of Glyceraldehyde-3-phosphate dehydrogenase (P04406 whole entry): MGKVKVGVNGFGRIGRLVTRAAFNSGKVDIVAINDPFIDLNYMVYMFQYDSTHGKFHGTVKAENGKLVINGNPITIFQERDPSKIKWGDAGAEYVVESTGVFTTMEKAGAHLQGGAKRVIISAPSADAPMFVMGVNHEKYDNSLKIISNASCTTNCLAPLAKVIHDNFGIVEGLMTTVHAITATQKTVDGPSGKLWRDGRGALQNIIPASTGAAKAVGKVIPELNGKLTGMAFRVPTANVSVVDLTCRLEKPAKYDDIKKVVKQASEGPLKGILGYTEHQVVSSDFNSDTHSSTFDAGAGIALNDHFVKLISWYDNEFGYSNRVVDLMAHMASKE

Compound: CCCCCCCCC#CC#CCCCC(=O)O
- IC50 [1]: > 100 µM (inactive)
- IC50 [2]: > 100 µM (inactive)
- IC50 [3]: 96.2 µM (not active)
- IC50 [4]: > 100 µM (not active)

Compound: CN1/C(=C\C(=O)COc2ccc3c(c2)OCO3)C(C)(C)c2ccccc21
- EC50 [5]: 2.75 µM (active)
- IC50 [6]: 0.768 µM (active)
- AC50 [7]: 23.4 µM (active)
- EC50 [8]: > 60 µM (not active)
- AC50 [9]: 4.1 µM (active)
- IC50 [10]: 1.48 µM (active)

Compound: COc1ccc2cc3cc(C(=O)NCCN4CCN(Cc5ccccc5)CC4)oc3nc2c1
- AC50 [11]: 1.51 µM (active)

Compound: CCOc1ccc(S(=O)(=O)Nc2cc(Cl)ccc2O)cc1
- AC50 (Escherichia coli): 53.7 µM (active)

Compound: CCc1ccc[n+](-c2[n-]c(=O)sc2C=NNC(=S)Nc2ccccc2)c1
- AC50 (ORF 73): 10.1 µM (active)
- AC50 (Keap1/Nrf2): 13.6 µM (active)

Compound: O=C(NC12CC3CC(CC(C3)C1)C2)N(Cc1ccccc1)Cc1ccncc1
- EC50 (HEK293 [12]): > 59.6 µM (inactive)
- EC50 (HEK293 [13]): > 59.6 µM (inactive)

Compound: O=C(CNc1cccc([N+](=O)[O-])c1)N/N=C/c1ccc([N+](=O)[O-])o1
- CC50 [14]: 10.1 µM (active)
- EC50 [15]: 0.0205 µM (active)
- AC50 [16]: 8.63 µM (active)
- EC50 [5]: < 0.1 µM (active)
- EC50 [8]: > 60 µM (not active)
- CC50 [17]: 11.6 µM (active)
- AC50 (Trypanosoma cruzi): 0.061 µM (active)
- CC50 [18]: 14.1 µM (active)
- EC50 (cells [19]): 0.055 µM (active)
- AC50 (A-375): 41.8 µM (active)
- AC50 [20]: 35.6 µM (active)
- IC50 (cells [21]): 5.42 µM (active)

Compound: O=C(N/N=C/c1cc(Cl)cc([N+](=O)[O-])c1O)NC12CC3CC(CC(C3)C1)C2
- IC50 [22]: 40 µM (active)
- EC50 [23]: 6.87 µM (active)
- AC50 [9]: 5.03 µM (active)

Compound: Cc1nn(-c2cccc(C(F)(F)F)c2)c(Cl)c1/C=N/Nc1cccc(C(=O)O)c1
- IC50 [24]: 11.4 µM (not active)
- AC50 [25]: > 52 µM (inactive)

Compound: Cc1cc(Nc2ccccc2)nc(NCc2ccccc2)n1
- EC50 [26]: > 150 µM (inactive)
- AC50 [27]: 1.04 µM (active)
- AC50 [28]: 20.5 µM (active)
- EC50 [29]: 0.783 µM (active)
- AC50 [30]: 2.54 µM (active)
- IC50 [31]: 2.05 µM (active)
- IC50 [6]: 0.571 µM (active)
- IC50 [32]: > 20 µM (inactive)
- EC50 [33]: > 180 µM (inactive)
- IC50 [10]: 0.927 µM (active)
- EC50 [34]: > 150 µM (inactive)
